Assay results: patent US5523308A, “Peptidyl heterocycles useful in the treatment of thrombin related disorders” (priority 1995, dated 1996)
Read-outs that look alike come from different tables or passages of the source.

Columns and labels:
[1] = rat, in vivo, iv
Protocol: (§1) An ex vivo assay was conducted to determine the duration of action of the compounds of Formula I. For this i.v. assay male rats (Long Evans, 350-500 g) were implanted with a teflon cannulae via the femoral artery while under anesthesia (pentobarbital i.p., 35 mg/kg). […] The animals were allowed to recover for at least 24 h after the surgical procedure.
(§2) The test compound was dispersed in water and delivered to the animal (0.25 mL) via the femoral vein. […] A plasma sample was obtained by centrifuging the blood at 10,000 rpm for 5 min. This sample is analyzed for thrombin inhibition using the chromogenic assay, described below.
(§3) Datum was collected over a 30 min period and the initial rate of substrate hydrolysis (V0 (mOD/min)) was calculated with an analysis program (Softmax, Molecular Devices).
(§4) The time to half plasma elimination (t 1/2) was calculated from the slope of Vo vs. time, using the following equation: t 1/2=-1.6 slope.

human alpha-thrombin = biological target: T1, human alpha-thrombin (Homo sapiens, UniProt P00734); experiment: Thrombin-catalyzed hydrolysis of chromogenic substrate Spectozyme TH (in vitro enzyme assay); format: biochemical; conditions: 1 nM thrombin, 37° C., pH 7.4; for IC50: 50 μM Spectozyme TH, read-out: Thr IC50
T1 construct: commercial human alpha-thrombin (American Diagnostica); purchased American Diagnostica
Protocol: Thrombin-catalyzed hydrolysis rates were measured spectrophotometrically using commercial human alpha-thrombin (American Diagnostica), a chromogenic substrate (Spectozyme® TH (H-D-HHT-Ala-Arg-pNA.2AcOH), American Diagnostica) in aqueous buffer (10 mM Tris, 10 mM Hepes, 150 mM NaCl, 0.1% PEG; pH 7.4), and a microplate reader (Molecular Devices). Changes in absorbance at 405 nm were monitored (Softmax, Molecular Devices), upon addition of enzyme, both with and without inhibitor present at 37° C. over 30 minutes. […] Michaelis-Menton kinetics were applied to the initial reaction slopes. […] Michaelis-Menton kinetics were applied to the initial reaction slopes using the program K.Cat (Bio Metallics Inc.).

Bovine type 1 trypsin = biological target: T2, Bovine type 1 trypsin (Bos taurus, UniProt P00760); experiment: Trypsin-catalyzed hydrolysis of chromogenic substrate Spectrozyme TRY (in vitro enzyme assay); format: biochemical; conditions: 3.2 U/ml trypsin, 0.1-0.3 mM Spectrozyme TRY; read-out: Trp IC50
T2 construct: purchased Sigma
T2 sequence (P00760 24-246): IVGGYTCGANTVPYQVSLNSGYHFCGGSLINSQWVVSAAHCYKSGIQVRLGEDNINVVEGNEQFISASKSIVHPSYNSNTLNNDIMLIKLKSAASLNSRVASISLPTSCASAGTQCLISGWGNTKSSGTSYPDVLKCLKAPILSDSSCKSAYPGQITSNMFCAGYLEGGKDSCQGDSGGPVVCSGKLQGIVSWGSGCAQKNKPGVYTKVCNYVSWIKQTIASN
Protocol: The compounds of the invention were tested for their ability to inhibit thrombin mediated hydrolysis. An in vitro enzyme assay was performed as well as an ex vivo assay. In addition, the compounds were tested in vitro for their ability to inhibit trypsin, as an indication of their selectivity.
Trypsin-catalyzed hydrolysis rates were measured using the same method as the thrombin procedure.
The compound numbers in the table correspond to the examples described hereinafter.

trypsin = conditions: pancreatic agents quoted for comparison; read-out: IC50 (trypsin inhibitors used clinically); cited from earlier work
[2] = Ex vivo i.v. assay for duration of action: time to half plasma elimination from thrombin inhibition in rat plasma; conditions: male Long Evans rats, i.v. via femoral vein, from slope of Vo vs. time
Protocol: as §1, §2, §3, §4

[3] = Ex vivo bioavailability assay, i.v. and p.o. dosing, thrombin inhibition in rat plasma; conditions: male rats, p.o. vs i.v., extrapolated drug in plasma vs. time
Protocol: Bioavailability was determined by an ex vivo assay which incorporated hydrolysis rates from drug administered both i.v. and p.o. In this assay male rats were prepared as described above with a teflon tube implanted in their femoral artery. […] The test compound was dispersed in water (0.3-3.0 mg/mL final conc.) and delivered to the animals (0.25 mL) either i.v. or p.o..
A standard curve was generated by adding of drug or vehicle (100 μL) to whole blood (900 μL) followed by incubating (5 min) and centrifuging to obtain plasma. The percentage of thrombin inhibition was calculated by comparing the V0 of the vehicle to that of the drug treated samples. Datum from several runs were normalized with a statistical package (SAS) to generate a standard curve.
The percentage of thrombin inhibition in the treated animals was calculated by comparing the V0 prior to treatment with the V0 obtained from samples collected after treatment. The percent inhibition was applied to the standard curve (generated above) using the statistical package (SAS) and the quantity of drug in the sample was extrapolated.
Bioavailability (Bioavail.) was calculated from the plots of the extrapolated drug in sample vs. time for both i.v. and p.o. administration using the following equation:
%Bioavail. =(i.v. dose administered/p.o. dose administered)×(area under p.o. curve/area under curve i.v.)

Row | SMILES | t1/2 (time to half plasma elimination) [1] [min] | IC50 (human alpha-thrombin) [nM] | IC50 (Bovine type 1 trypsin) [nM] | other results
1 | N=C(N)c1ccc2cc(OC(=O)c3ccc(N=C(N)N)cc3)ccc2c1 [nafamostat] |  |  |  | IC50 (trypsin): 13 nM
2 | CN[C@H](Cc1c(F)c(F)c(F)c(F)c1F)C(=O)N1CCC[C@H]1C(=O)N[C@@H](CCCNC(=N)N)C(=O)c1nc2ccccc2s1 [Compound 30] | 6 | 29 | 2 | 
3 | CN(C)C(=O)COC(=O)Cc1ccc(OC(=O)c2ccc(NC(=N)N)cc2)cc1 [camostat mesilate] |  |  |  | IC50 (trypsin): 10 nM
4 | CN[C@H](Cc1ccccc1)C(=O)N1CCC[C@H]1C(=O)N[C@@H](CCCNC(=N)N)C(=O)c1nc2ccc(O)cc2s1 [Compound 25, N-METHYL-D-PHENYLALANYL-N-[4-[(AMINOIMINOMETHYL)AMINO]-1S-[(6-HYDROXYBENXOT HIAZOL-2-YL)CARBONYL]BUTYL]-L-PROLINAMIDE] |  |  |  | t1/2 (time to half plasma elimination) [2]: 14 min
5 | CNC(C(=O)N1CCCC1C(=O)NC(CCCNC(=N)N)C(=O)c1nc2ccccc2s1)c1ccccc1 [Compound 33, N-METHYL-D-PHENYLGLYCYL-N-[4-[(AMINOIMINOMETHYL)AMINO]-1S-[(BENXOTHIAZOL-2- YL)CARBONYL]BUTYL]-L-PROLINAMIDE] | 18 |  | 2 | 
6 | CNC(C(=O)N1CCC[C@H]1C(=O)N[C@@H](CCCNC(=N)N)C(=O)c1nc2ccccc2s1)c1ccccc1 (single isomer, unassigned) [Compound 34] |  |  | 3 | t1/2 (time to half plasma elimination) [2]: 26 min

More lines, main results first:

Row | t1/2 (time to half plasma elimination) [1] [min] | IC50 (human alpha-thrombin) [nM] | IC50 (Bovine type 1 trypsin) [nM] | SMILES | other results
7 | 17 | 17 | 7 | CN[C@H](Cc1ccccc1)C(=O)N1CCC[C@H]1C(=O)N[C@@H](CCCNC(=N)N)C(=O)c1nc2c(s1)CCCC2 [Compound 51, N-METHYL-D-PHENYLALANYL-N-[4-[(AMINOIMINOMETHYL)AMINO]-1S-[(4,5,6,7-TETRAHY DROBENZOTHIAZOL-2-YL)CARBONYL]BUTYL]-L-PROLINAMIDE] | 
8 | 5 | 24 | 51 | CNC(Cc1ccccc1)C(=O)N1CCCC1C(=O)NC(CCCNC(=N)N)C(=O)c1nc2ccccc2[nH]1 (stereo not drawn) [Compound 21] | 
9 | 14 | 26 | 5 | CCOC(=O)c1csc(C(=O)[C@H](CCCNC(=N)N)NC(=O)[C@@H]2CCCN2C(=O)[C@@H](Cc2ccccc2)NC)n1 [Compound 19, N-METHYL-D-PHENYLALANYL-N-[4-[(AMINOIMINOMETHYL)AMINO]-1S-[(4-ETHOXYCARBONY LTHIAZOL-2-YL)CARBONYL]BUTYL]-L-PROLINAMIDE] | 
10 | 15 | 110 | 13 | CN[C@H](Cc1ccccc1)C(=O)N1CCC[C@H]1C(=O)N[C@@H](CCCNC(=N)N)C(=O)c1nc(C(=O)O)cs1 [Compound 54, N-METHYL-D-PHENYLALANYL-N-[4-[(AMINOIMINOMETHYL)AMINO]-1S-[(4-CARBOXYTHIAZO L-2-YL)CARBONYL]BUTYL]-L-PROLINAMIDE] | 
11 | 19 |  | 2 | CN[C@H](Cc1ccc(F)cc1)C(=O)N1CCC[C@H]1C(=O)N[C@@H](CCCNC(=N)N)C(=O)c1nc2ccccc2s1 [Compound 32, N-METHYL-D-(4-FLUOROPHENYL)ALANYL-N-[4-[(AMINOIMINOMETHYL)AMINO]-1S-[(BENXO THIAZOL-2-YL)CARBONYL]BUTYL]-L-PROLINAMIDE] | 
12 | 16 | 19 | 6 | CNC(Cc1ccccc1)C(=O)N1CCCC1C(=O)NC(CCCNC(=N)N)C(=O)c1nccs1 (stereo not drawn) [Compound 4] | 
13 | 11 | 201 | 2 | CC(=O)N[C@H](Cc1ccccc1)C(=O)N1CCC[C@H]1C(=O)N[C@@H](CCCNC(=N)N)C(=O)c1nc2ccccc2s1.O=C(O)C(F)(F)F [Compound 35] | 
14 | 19 |  |  | CN[C@H](Cc1ccccc1)C(=O)N1CCC[C@H]1C(=O)N[C@@H](CCCNC(=N)N)C(=O)c1nc2ccccc2s1 [Compound 1, N-METHYL-D-PHENYLALANYL-N-[4-[(AMINOIMINOMETHYL)AMINO]-1S-[(BENXOTHIAZOL-2- YL)CARBONYL]BUTYL]-L-PROLINAMIDE] | Bioavail, [3]: 1.2%; Ki (human alpha-thrombin; 5-100 μM Spectozyme TH, read-out: Thr Ki (listed in place of the IC50)): 0.23 nM
